According to patent US20250243233A1, “BIOBASED SURFACTANTS” (ECOLE POLYTECHNIQUE FEDERALE DE LAUSANNE (EPFL), priority 2022, published 2025):

Experiments:
Type in all cases: physicochemical
[1] = Interfacial tension measurements, water/oil pendant drop test (CMC from interfacial tension-concentration graph)
Description: To test the amphiphilic properties of each molecule, we measured the water/oil interfacial tension using pendant drop test. In a typical test, we inject the organic solution with surfactants slowly into the water phase with a bent needle with 1 mm diameter. The interfacial tension is calculated by the force balance with the buoyancy force. The critical micelle concentration (CMC) can be obtained by checking the critical point of interfacial tension-concentration graph. […] The CMC of MAX10 and MAX8 are around 2.5 mg/mL.

[2] = Emulsion stability measurements (water/cyclohexane emulsions, bright-field microscope); conditions: water/oil emulsion (67% water and 33% cyclohexane) containing 1% surfactant, FIG. 2
Description: The emulsions were prepared by mixing 1 ml of water (with 1 mg/ml of Acian blue dye) and 2 ml cyclohexane containing 3,5-O-dodecylidene-xylose or 2-((dodecyloxy)methyl) tetrahydrofuran-3,4-diol) at a concentration of 0.1% and then mixed by vortex for 30 s.
Emulsions were characterized using a bright-field microscope (Leitz Ergolux) during the storage after preparation. […] Besides, a water/oil emulsion (67% water and 33% cyclohexane) containing 1% 3,5-O-dodecylidene-xylose was kept for about 1 year to observe its possible destablization.

[3] = Accelerated aqueous decomposition test (boiling in water, HPLC); conditions: FIG. 16
Description: HPLC analyses for the accelerated aqueous decomposition of MAXn were performed using a HPX-87H Column (300 mm×7.8 mm; column temperature=60° C.) using pH 2 water as eluent (flow rate=0.6 ml·min^−1, Vinj=20 μL) with 1260 Refractive Index Detector (RID) (G1362A)
To gain insight into the degradation products of 1,2-O-dodecylidene-xylose (MAX12) in water, an accelerating aging test was performed by boiling it in water. Samples were taken at various time points and analyzed by HPLC (pH2 aqueous-phase chromatography, HPX-87H Column (300 mm×7.8 mm; 125-0140), 1260 Refractive Index Detector (RID) (G1362A), flow rate=0.6 ml·min^−1, Vinj=20 μL, column temperature=60° C.). […] And to our knowledge, fatty aldehydes can be oxidized into fatty acids catalyzed by the aldehyde dehydrogenase enzyme. Xylose and fatty acids are readily biodegradable.

[4] = quick emulsion test in ethyl acetate and water; conditions: non-miscible system of ethyl acetate and water, mixture neutralized until pH 7, FIG. 1a
Excerpt: The mixture was neutralized until pH 7, and dissolved in a non-miscible system of ethyl acetate and water to do a quick emulsion test.

[5] = water/oil interfacial tension, FIG. 7

Question: With 3,5-O-decylidene-xylose [MAX10] as the compound, how does the “critical micelle concentration (CMC)” value [1, 5] read?
Answer: around 2.5 mg/mL

Question: What does the source list for 3,5-O-dodecylidene-xylose [MAX12]?
Answer: critical micelle concentration (CMC) [1, 5]: 0.35 mg/mL; state of emulsion after about 1 year storage [2]: most of the volume maintained the form of emulsion; time to cleavage into xylose and fatty aldehyde [3]: 2 days

Question: Which “critical micelle concentration (CMC)” value [1, 5] does the source give for 3,5-O-octylidene-xylose [MAX8] here?
Answer: around 2.5 mg/mL

Question: Which “phase separation / formation of emulsion” value [4] does the source give for `CCCCCCCCO` [1-octanol] here?
Answer: phase separated

Question: With `CCCCCCCCCCCCOCC1OCC(O)C1O` (centres unmarked) [2-((dodecyloxy)methyl)tetrahydrofuran-3,4-diol] as the compound, how does the “interfacial tension plateau value” ([1]; cyclohexane/water) read?
Answer: about 1.0 mN/m

Question: And the “critical micelle concentration (CMC)” value ([1]; cyclohexane/water, FIG. 8)?
Answer: around 0.5 g/L
